Data from PubChem BioAssay AID2060606 (Molecular Pharmacology Branch, DTP, NCI, 2025).

Tested on: 922993-354-T-J3-PDC complex spheroids, viability, % test/control
Experiment: Anticancer human tumor 922993-354-T-J3-PDC patient-derived endometrial carcinoma cell line growth inhibition [CLK]
Conditions: for IC50: curve of first compound; for viability, T/C: stronger effect = lower value; active means viability on the fitted dose curve at most 10% of control; inactive means the rest
How it was run: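 Patient-derived tumor cells grown as complex spheroids with HUVEC endothelial cells and mesenchymal stem cells, treated with drug combinations. Concentrations descend in half-log steps from near clinical Cmax, or from 10 microM if Cmax unknown.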
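Further: spheroids exposed to the agents for 7 days before readout.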

O=C(c1cc(Cc2n[nH]c(=O)c3ccccc23)ccc1F)N1CCN(C(=O)C2CC2)CC1 + CN1CCN(c2cc(C(=O)Nc3cc4cc(-c5cnn(C)c5)ccc4cn3)ccn2)CC1
active: viability, T/C (second compound 1 µM, first compound 0.0316 µM) 0.1% | viability, T/C (second compound 1 µM, first compound 0.1 µM) 0.12% | viability, T/C (second compound 1 µM, first compound 0.316 µM) 1.56% | viability, T/C (second compound 1 µM, first compound 1 µM) 0.08% | viability, T/C (second compound 1 µM, first compound 3.16 µM) 1.32% | viability, T/C (second compound 1 µM, first compound 10 µM) 1.97% | viability, T/C (second compound 3.16 µM, first compound 0.0316 µM) 0.08% | viability, T/C (second compound 3.16 µM, first compound 0.1 µM) 0.63% | viability, T/C (second compound 3.16 µM, first compound 0.316 µM) 0.57% | viability, T/C (second compound 3.16 µM, first compound 1 µM) 0.11% | viability, T/C (second compound 3.16 µM, first compound 3.16 µM) 1.25% | viability, T/C (second compound 3.16 µM, first compound 10 µM) 1.13% | viability, T/C (second compound 10 µM, first compound 0.0316 µM) 0.12% | viability, T/C (second compound 10 µM, first compound 0.1 µM) 1.28% | viability, T/C (second compound 10 µM, first compound 0.316 µM) 2.09% | viability, T/C (second compound 10 µM, first compound 1 µM) 1.28% | viability, T/C (second compound 10 µM, first compound 3.16 µM) 0.42% | viability, T/C (second compound 10 µM, first compound 10 µM) 2.31%
> 10000 nM: IC50 (second compound 0.0316 µM) | IC50 (second compound 0.1 µM)
< 31.6 nM: IC50 (second compound 0.316 µM) | IC50 (second compound 1 µM) | IC50 (second compound 3.16 µM) | IC50 (second compound 10 µM)
inactive: viability, T/C (second compound 0.0316 µM, first compound 0.0316 µM) 118% | viability, T/C (second compound 0.0316 µM, first compound 0.1 µM) 106% | viability, T/C (second compound 0.0316 µM, first compound 0.316 µM) 108% | viability, T/C (second compound 0.0316 µM, first compound 1 µM) 117% | viability, T/C (second compound 0.0316 µM, first compound 3.16 µM) 93.5% | viability, T/C (second compound 0.0316 µM, first compound 10 µM) 97% | viability, T/C (second compound 0.1 µM, first compound 0.0316 µM) 92.1% | viability, T/C (second compound 0.1 µM, first compound 0.1 µM) 98.6% | viability, T/C (second compound 0.1 µM, first compound 0.316 µM) 95.8% | viability, T/C (second compound 0.1 µM, first compound 1 µM) 87% | viability, T/C (second compound 0.1 µM, first compound 3.16 µM) 84.6% | viability, T/C (second compound 0.1 µM, first compound 10 µM) 84.8% | viability, T/C (second compound 0.316 µM, first compound 0.0316 µM) 44.1% | viability, T/C (second compound 0.316 µM, first compound 0.1 µM) 32% | viability, T/C (second compound 0.316 µM, first compound 0.316 µM) 24.3% | viability, T/C (second compound 0.316 µM, first compound 1 µM) 33% | viability, T/C (second compound 0.316 µM, first compound 3.16 µM) 39.1% | viability, T/C (second compound 0.316 µM, first compound 10 µM) 32.2%
